# Experimental data from patent US20190233884A1 (University of Southern California, priority 2016, published 2019).
# Tested on: patients with refractory metastatic colorectal cancer (mCRC)
# Test: PFS, OS and disease control in the training (evaluation) cohort of refractory mCRC patients receiving TAS-102 (n=52, Japan), by baseline characteristics, SNP genotype and toxicity
# Assay type: in vivo, human
# Description: All patients underwent the treatment in salvage-line setting. […]
# Genomic DNA was extracted from peripheral whole blood in patients of all cohorts using the QIAmp Kit (Qiagen, Valencia, Calif., USA) according to the manufacturer's protocol (www.qiagen.com). The candidate SNPs were genotyped using PCR-based direct DNA sequence analysis by ABI 3100A Capillary Genetic Analyzer and Sequencing Scanner v1.0 (Applied Biosystems). Amplification of extracted DNA was carried out using both forward and reverse primers for each gene polymorphism as shown in Table 1. […] The investigators analyzing SNPs were blinded to the clinical data of the study patients.
# The primary endpoint in this study was progression-free survival (PFS), and the secondary endpoints were overall survival (OS) and disease control rate (DCR). PFS was calculated from the date of starting treatment to the first observation of disease progression or death from any cause. If a patient had no disease progression or death, PFS was censored at the date of last follow up. OS was calculated from the date of starting treatment until the date of death from any cause or the date of the last follow-up, at which point OS was censored. The disease control rate (DCR) was defined as the proportion of patients who achieved a stable disease (SD) or […] according to RECISTv1.1. Chi-square test was used to examine the difference in baseline patient characteristics among the three cohorts. Allelic distribution of all SNPs by ethnicity for deviation from Hardy-Weinberg equilibrium and the allelic frequencies of SNPs were tested using the Chi-square tests with one degree of freedom. The associations between candidate SNPs and disease control, and toxicities were examined using contingency tables and Fisher's exact test. The associations of SNPs with PFS and OS were analysed using Kaplan-Meier curves and the log-rank test. Because the true mode of inheritance of candidate SNPs was not established yet, a codominant or dominant genetic model if appropriate was considered.
# All patients underwent the treatment in salvage-line setting. […] In all patients, adverse events were graded according to the Common Terminology Criteria for Adverse Events, version 4.0. […]
# Genomic DNA was extracted from peripheral whole blood in patients of all cohorts using the QIAmp Kit (Qiagen, Valencia, Calif., USA) according to the manufacturer's protocol (www.qiagen.com). The candidate SNPs were tested using PCR-based direct DNA sequence analysis by ABI 3100A Capillary Genetic Analyzer and Sequencing Scanner v1.0 (Applied Biosystems). […] The investigators analyzing SNPs were blinded to the clinical data.
# The primary endpoint in this study was progression-free survival (PFS), and the secondary endpoints were overall survival (OS) and disease control rate (DCR).
# [1] = training cohort, OCT2 rs316019 C/C
# [2] = training cohort, hENT1 + OCT2/MATE1 classification: Fair
# [3] = training cohort, hENT1rs750370_19 Excellent
# [4] = training cohort, hENT1rs750370_19 Faire
# [5] = training cohort, hENT1rs750370_19 Faire vs Poor
# [6] = training cohort, hENT1rs750370_19 Good
# [7] = training cohort, hENT1rs750370_19 Good and Excellent combined
# [8] = training cohort, hENT1rs750370_19 Good and Excellent combined vs Poor
# [9] = training cohort, hENT1rs750370_19 Poor
# [10] = training cohort, hENT1 rs760370, multivariate adjusted for liver metastases and adjuvant history
# [11] = training cohort, hENT1 rs760370 A/A
# [12] = training cohort, hENT1 rs760370 A/G
# [13] = training cohort, hENT1 rs760370 A/G and G/G combined
# [14] = training cohort, hENT1 rs760370 A/G and G/G combined vs A/A
# [15] = training cohort, hENT1 rs760370 G/G
# [16] = training cohort, hENT1 rs760370 any G allele
# [17] = training cohort, hENT1 rs760370 any G vs A/A, univariate
# [18] = training cohort, hENT1 rs9394992 C/C
# [19] = training cohort, hENT1 rs9394992 C/T
# [20] = training cohort, hENT1 rs9394992 C/T and T/T combined
# [21] = training cohort, hENT1 rs9394992 C/T and T/T combined vs C/C
# [22] = training cohort, hENT1 rs9394992 T/T
# [23] = training cohort, hENT1 rs9394992 any T allele
# [24] = training cohort, hENT1 rs9394992 any T vs C/C, univariate
# [25] = training/evaluation cohort, grade 3≤ neutropenia vs less than grade 3, univariate
# [26] = training/evaluation cohort, neutropenia less than grade 3 (n=32)
# [27] = training/evaluation cohort, patients with grade 3≤ neutropenia (n=20)
# [28] = whole training (evaluation) cohort
substance,measurement,setting,value
Trifluridine/tipiracil [TAS-102],Progression-free Survival HR (95% CI) univariate,"training cohort, OCT2 rs316019 C/A and A/A combined vs C/C","0.74 (0.35, 1.52)"
same,Disease Control Rate PD,[1],24 (73%)
same,Disease Control Rate SD,[1],9 (27%)
same,"Overall Survival Median, months (95% CI)",[1],"8.1 (5.7, 12.4) months"
same,"Progression-free Survival Median, months (95% CI)",[1],"2.5 (2.1, 3.4) months"
same,Progression-free Survival HR (95% CI) multivariate,"training cohort, adjusted for liver metastasis and adjuvant history, CNT1 rs2290272 A/A genotype","1.01 (0.38, 2.68)"
same,Progression-free Survival HR (95% CI) multivariate,"training cohort, adjusted for liver metastasis and adjuvant history, CNT1 rs2290272 G/A genotype","0.64 (0.29, 1.39)"
same,Progression-free Survival HR (95% CI) multivariate,"training cohort, adjusted for liver metastasis and adjuvant history, CNT1 rs2290272 any A allele","0.71 (0.33, 1.50)"
same,Progression-free Survival HR (95% CI) multivariate,"training cohort, adjusted for liver metastasis and adjuvant history, MATE2 rs16960360 A/C or C/C genotype","1.07 (0.55, 2.07)"
same,Progression-free Survival HR (95% CI) multivariate,"training cohort, adjusted for liver metastasis and adjuvant history, OCT2 rs316000 A/G or G/G genotype","1.11 (0.48, 2.56)"
same,Progression-free Survival HR (95% CI) multivariate,"training cohort, adjusted for liver metastasis and adjuvant history, TK1 rs1065769 C/T or T/T genotype","1.13 (0.58, 2.18)"
same,OS,"training cohort, grade 2< neutropenia (so in the source)",8.3 months
same,HR for OS,"training cohort, grade 2< vs grade 2> neutropenia",0.41
same,OS,"training cohort, grade 2> neutropenia (so in the source)",4.4 months
same,OS,[2],7.2
same,PFS,[2],2.1 months
same,PFS,"training cohort, hENT1 + OCT2/MATE1 classification: Good or Excellent",3.5 months
same,OS,"training cohort, hENT1 + OCT2/MATE1 classification: Good or Excellent (third value as printed)",3.4
same,OS,"training cohort, hENT1 + OCT2/MATE1 classification: Poor (first value)",8.7
same,Disease Control Rate PD,[3],10 (50%)
same,Disease Control Rate SD,[3],10 (50%)
same,"Overall Survival Median, months (95% CI)",[4],"7.2 (2.7, 14.8) months"
same,"Progression-free Survival Median, months (95% CI)",[4],"2.1 (1.6, 4.1) months"
same,Overall Survival HR (95% CI) multivariate,[5],"0.37 (0.11, 1.23)"
same,Overall Survival HR (95% CI) univariate,[5],"0.37 (0.12, 1.16)"
same,Progression-free Survival HR (95% CI) multivariate,[5],"0.48 (0.20, 1.16)"
same,Progression-free Survival HR (95% CI) univariate,[5],"0.42 (0.17, 1.03)"
same,Disease Control Rate PD,[6],2 (67%)
same,Disease Control Rate SD,[6],1 (33%)
same,"Overall Survival Median, months (95% CI)",[7],"8.7 (8.1, 15.6) months"
same,"Progression-free Survival Median, months (95% CI)",[7],"3.5 (2.5, 4.6) months"
same,Overall Survival HR (95% CI) multivariate,[8],"0.08 (0.02, 0.41)"
same,Overall Survival HR (95% CI) univariate,[8],"0.14 (0.04, 0.48)"
same,Progression-free Survival HR (95% CI) multivariate,[8],"0.28 (0.11, 0.55)"
same,Progression-free Survival HR (95% CI) univariate,[8],"0.26 (0.11, 0.59)"
same,Disease Control Rate PD,[9],9 (100%)
same,Disease Control Rate SD,[9],0
same,"Overall Survival Median, months (95% CI)",[9],"3.4 (2.7, 6.5) months"
same,"Progression-free Survival Median, months (95% CI)",[9],"1.6 (0.9, 2.9) months"
same,PFS,"training cohort, hENT1 rs760370 + OCT2 rs316019/MATE1 rs2289669 classification: Poor",1.6 months
same,HR for OS,[10],0.27
same,HR for PFS,[10],0.44
same,Disease Control Rate PD,[11],19 (83%)
same,Disease Control Rate SD,[11],4 (17%)
same,OS,[11],5.3 months
same,"Overall Survival Median, months (95% CI)",[11],"5.3 (3.1, 12.4) months"
same,PFS,[11],2.1 months
same,"Progression-free Survival Median, months (95% CI)",[11],"2.1 (1.6, 2.9) months"
same,Disease Control Rate PD,[12],11 (55%)
same,Disease Control Rate SD,[12],9 (45%)
same,"Overall Survival Median, months (95% CI)",[13],"8.7 (8.1, 15.6+) months"
same,"Progression-free Survival Median, months (95% CI)",[13],"3.5 (2.5, 4.6) months"
same,Overall Survival HR (95% CI) multivariate,[14],"0.17 (0.05, 0.63)"
same,Overall Survival HR (95% CI) univariate,[14],"0.27 (0.10, 0.70)"
same,Progression-free Survival HR (95% CI) multivariate,[14],"0.44 (0.22, 0.89)"
same,Progression-free Survival HR (95% CI) univariate,[14],"0.44 (0.23, 0.83)"
same,Disease Control Rate PD,[15],1 (33%)
same,Disease Control Rate SD,[15],2 (67%)
same,OS,[16],8.7 months
same,PFS,[16],3.5 months
same,HR for OS,[17],0.27
same,HR for PFS,[17],0.44
same,HR for PFS,"training cohort, hENT1 rs9394992, multivariate adjusted for liver metastases and adjuvant history",0.44
same,Disease Control Rate PD,[18],15 (83%)
same,Disease Control Rate SD,[18],3 (17%)
same,OS,[18],4.4 months
same,"Overall Survival Median, months (95% CI)",[18],"4.4 (2.7, 7.2) months"
same,PFS,[18],1.9 months
same,"Progression-free Survival Median, months (95% CI)",[18],"1.9 (1.6, 2.7) months"
same,Disease Control Rate PD,[19],14 (64%)
same,Disease Control Rate SD,[19],8 (36%)
same,"Overall Survival Median, months (95% CI)",[20],"8.7 (8.1, 15.6+) months"
same,"Progression-free Survival Median, months (95% CI)",[20],"3.4 (2.3, 4.4) months"
same,Overall Survival HR (95% CI) multivariate,[21],"0.20 (0.08, 0.51)"
same,Overall Survival HR (95% CI) univariate,[21],"0.21 (0.08, 0.51)"
same,Progression-free Survival HR (95% CI) multivariate,[21],"0.44 (0.23, 0.86)"
same,Progression-free Survival HR (95% CI) univariate,[21],"0.48 (0.25, 0.91)"
same,Disease Control Rate PD,[22],2 (33%)
same,Disease Control Rate SD,[22],4 (67%)
same,OS,[23],8.7 months
same,PFS,[23],3.4 months
same,HR for OS,[24],0.21
same,HR for PFS,[24],0.48
same,HR for OS,[25],0.59
same,HR for PFS,[25],0.68
same,OS,[26],6.3 months
same,PFS,[26],2.1 months
same,OS,[27],8.3 months
same,PFS,[27],3.4 months
same,Median OS,[28],8.0 months
same,Median PFS,[28],2.6 months
